Values quoted from earlier work as cited in patent US8282955B2, “Method for the preparation of a pharmaceutical composition comprising 5-aminosalicylic acid for use in treatment of ulcerative colitis and Crohn's disease” (Ferring B.V., priority 2001, dated 2012).

Conditions: moisture and light

Stability: poor stability
SMILES: Nc1ccc(O)c(C(=O)O)c1 [Batch 5-ASA, 5-aminosalicylic acid]
